What was measured:
Assay in all cases: relative viability (nuclei count vs DMSO), 5 days (fraction); higher = more cells survive
[1] = compound: CN1CCN(CC1)C2=CC(=C(C=C2)NC3=NC(=C(S3)C(=O)C4=C(C=CC=C4Cl)Cl)N)OC [XMD14-99] + C[C@]1(O)C[C@@H](c2nc(-c3ccc4ccc(-c5ccccc5)nc4c3)c3c(N)nccn32)C1 [Linsitinib] (partner 1 µM)
Summary of the method: (§1)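 Cells from lung cancer lines were seeded into 1536-well plates and, one day later, dosed by pin tool. Treatments were either a single drug or a fixed dose of an anchor drug with five library-drug doses (not always all listed) in √10 steps. After 5 days, nuclei were stained in a one-step fixation (final 0.05% Triton X-100, 1% formaldehyde, 1 ug/ml Hoechst) and counted on 4× images, and relative viability is the treated-to-vehicle nuclei ratio, as the median of duplicate plates.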

[2] = compound: N[C@@H]1CCCN(c2c(/C=C3\SC(=O)NC3=O)cccc2-c2ccccc2)C1 [AZD1208] + Nc1ncn([C@H]2C[C@H](O)[C@@H](CO)O2)c(=O)n1 [Decitabine] (partner 2 µM)
Summary of the method: as §1

[3] = compound: CN1CCN(CC1)C2=CC(=C(C=C2)NC3=NC(=C(S3)C(=O)C4=C(C=CC=C4Cl)Cl)N)OC [XMD14-99] + C[C@@H](Oc1cc(-c2cnn(C3CCNCC3)c2)cnc1N)c1c(Cl)ccc(F)c1Cl [Crizotinib] (partner 1 µM)
Summary of the method: as §1

[4] = compound: N[C@@H]1CCCN(c2c(/C=C3\SC(=O)NC3=O)cccc2-c2ccccc2)C1 [AZD1208] + CC(=O)c1c(C)c2cnc(Nc3ccc(N4CCNCC4)cn3)nc2n(C2CCCC2)c1=O [Palbociclib] (partner 0.5 µM)
Summary of the method: as §1

Cell Line	relative viability ([1]; first compound 0.08 µM)	relative viability ([1]; first compound 0.8 µM)	relative viability ([1]; first compound 2.53 µM)	relative viability ([1]; first compound 8 µM)	relative viability ([2]; first compound 0.08 µM)	relative viability ([2]; first compound 0.253 µM)	relative viability ([2]; first compound 0.8 µM)	relative viability ([2]; first compound 2.53 µM)	relative viability ([2]; first compound 8 µM)	relative viability ([3]; first compound 0.08 µM)	relative viability ([3]; first compound 0.8 µM)	relative viability ([3]; first compound 2.53 µM)	relative viability ([3]; first compound 8 µM)	relative viability ([4]; first compound 0.08 µM)	relative viability ([4]; first compound 0.253 µM)	relative viability ([4]; first compound 0.8 µM)	relative viability ([4]; first compound 2.53 µM)	relative viability ([4]; first compound 8 µM)
HCC-15	0.91	0.902	0.826	0.702	0.612	0.624	0.491	0.576	0.575	0.773	0.816	0.807	0.605	0.748	0.872	0.68	0.711	0.657
HCC-44	0.719	0.692	0.708	0.61	0.98	0.907	0.939	0.995	0.916	0.828	0.762	0.855	0.765	1.01	0.941	0.976	0.968	1.02
HCC-78	0.526	0.477	0.509	0.446	0.685	0.629	0.646	0.704	0.697	0.325	0.319	0.351	0.255	0.464	0.427	0.466	0.446	0.452
HCC-366	0.619	0.641	0.781	0.602	0.315	0.354	0.312	0.386	0.333	0.494	0.503	0.478	0.497	0.408	0.482	0.376	0.404	0.245
HCC-827	0.991	0.86	0.828	0.802	0.435	0.327	0.281	0.341	0.335	0.857	0.906	0.754	0.752	0.493	0.411	0.405	0.481	0.509
HOP-62	0.965	0.894	0.794	0.894	0.231	0.212	0.22	0.254	0.24	1.06	0.942	0.883	0.663	0.483	0.503	0.431	0.439	0.469
LC-2-ad	0.892	0.817	0.83	0.563	0.79	0.8	0.781	0.879	0.79	0.424	0.461	0.478	0.414	0.591	0.52	0.528	0.501	0.5
LCLC-97TM1	0.162	0.157	0.141	0.176	0.175	0.209	0.238	0.233	0.178	0.397	0.364	0.303	0.222	0.197	0.203	0.199	0.216	0.19

Reference: the supplement of paper PMC10307832
